Data as given in patent publication US20150148234A1, “HERBICIDE-RESISTANT SUNFLOWER PLANTS WITH MULTIPLE HERBICIDE RESISTANT ALLELES OF AHASL1 AND METHODS OF USE” (NIDERA S.A., priority 2013, published 2015).
Marks after values point to notes of the source that are not given here.

Tests used:
Experiment in all cases: imazapyr whole plant greenhouse test (Example 2)
Assay type in all cases: in vivo
[1] = tested on: sunflower line L5 (BTK 47), susceptible, WT; details: for biomass accumulation 14 days after treatment, % of untreated / plant height 14 days after treatment, % of untreated / Phytotoxicity Index (0-9) 14 days after treatment: L5; for height reduction: susceptible line
Method: (§1) Seeds were sown in Petri dishes and, after germination, plantlets were transplanted to pots of 10 cm of diameter in a potting media consisting of equal parts of vermiculite, soil and sand. Plants were grown in a greenhouse under natural light conditions supplemented with 400 W sodium halide lamps to provide a 16 hr daylength. Day/night temperatures were 25 and 20 ° C., respectively. At the V2-V4 stage (Schneiter & Miller (1981) Crop Sci. 21:901-903) 10 plants of each genotype were randomly assigned to each treatment consisting of eight imazapyr doses (0, 40, 80, 160, 240, 320, 400 and 480 g ai/ha, corresponding to untreated, 0.5×, 1×, 2×, 3×, 4×, 5× and 6×, respectively), and a zero-time biomass determination. Experiment was arranged as a randomized block design with a full factorial (sunflower line×treatment) arrangement of treatments and 10 replications.
(§2) On the day of herbicide application ten plants of each genotype were cut at the cotyledonal node and dried at 60° C. for 48 hrs for zero-time dried weight determination.
(§3) The remaining plants were maintained for 14 days after imazapyr treatment (DAT) and their height, Phytotoxicity Index (PI) and above ground dry biomass were determined Height was determined as the distance between the cotyledonal node and the apex of each plant. Above ground biomass data from each line were converted to biomass accumulation after application by subtracting the appropriate average zero- time biomass from each sample. Dry biomass data were converted to percentages of the untreated control plants within each line to allow direct comparisons between groups.

[2] = tested on: sunflower line L4, A122T
Method: as §1, §2, §3

[3] = tested on: sunflower genotypes carrying A122T (mean of H2, L3, L4); details: for Phytotoxicity Index (0-9) 14 days after treatment / biomass accumulation 14 days after treatment, % of untreated / plant height 14 days after treatment, % of untreated: A122T Mean; for height reduction: of the untreated controls
Method: as §1, §2, §3

CC(C)C1(C)N=C(c2ncccc2C(=O)O)NC1=O (stereo not shown) [imazapyr]
biomass accumulation 14 days after treatment, % of untreated ([1]; dose 4 (4x, 320 g ai/ha)): 15.0%
plant height 14 days after treatment, % of untreated ([1]; dose 4 (4x, 320 g ai/ha)): 14.58%
Phytotoxicity Index (0-9) 14 days after treatment ([1]; dose 5 (5x, 400 g ai/ha)): 9
biomass accumulation 14 days after treatment, % of untreated ([1]; dose 5 (5x, 400 g ai/ha)): 15.0%
plant height 14 days after treatment, % of untreated ([1]; dose 5 (5x, 400 g ai/ha)): 14.58%
Phytotoxicity Index (0-9) 14 days after treatment ([1]; dose 6 (6x, 480 g ai/ha)): 9
biomass accumulation 14 days after treatment, % of untreated ([1]; dose 6 (6x, 480 g ai/ha)): 15.0%
plant height 14 days after treatment, % of untreated ([1]; dose 6 (6x, 480 g ai/ha)): 14.58%
height reduction ([1]; 0.5x, 14 DAT): 85%
height reduction ([1]; from 1x to 6x, of the untreated control plants): approximately 85%
Phytotoxicity Index (0-9) 14 days after treatment ([2]; dose 0.5 (0.5x, 40 g ai/ha)): 0.0
biomass accumulation 14 days after treatment, % of untreated ([2]; dose 0.5 (0.5x, 40 g ai/ha)): 100.0%
plant height 14 days after treatment, % of untreated ([2]; dose 0.5 (0.5x, 40 g ai/ha)): 100.0%
Phytotoxicity Index (0-9) 14 days after treatment ([2]; dose 1 (1x, 80 g ai/ha)): 0.0
biomass accumulation 14 days after treatment, % of untreated ([2]; dose 1 (1x, 80 g ai/ha)): 99.1%
plant height 14 days after treatment, % of untreated ([2]; dose 1 (1x, 80 g ai/ha)): 100.0%
Phytotoxicity Index (0-9) 14 days after treatment ([2]; dose 2 (2x, 160 g ai/ha)): 0.0
biomass accumulation 14 days after treatment, % of untreated ([2]; dose 2 (2x, 160 g ai/ha)): 97.0%
plant height 14 days after treatment, % of untreated ([2]; dose 2 (2x, 160 g ai/ha)): 101.8%
Phytotoxicity Index (0-9) 14 days after treatment ([2]; dose 3 (3x, 240 g ai/ha)): 0.0
biomass accumulation 14 days after treatment, % of untreated ([2]; dose 3 (3x, 240 g ai/ha)): 96.1%
plant height 14 days after treatment, % of untreated ([2]; dose 3 (3x, 240 g ai/ha)): 97.0%
Phytotoxicity Index (0-9) 14 days after treatment ([2]; dose 4 (4x, 320 g ai/ha)): 0.0
biomass accumulation 14 days after treatment, % of untreated ([2]; dose 4 (4x, 320 g ai/ha)): 84.3%
plant height 14 days after treatment, % of untreated ([2]; dose 4 (4x, 320 g ai/ha)): 92.1%
Phytotoxicity Index (0-9) 14 days after treatment ([2]; dose 5 (5x, 400 g ai/ha)): 0.0
biomass accumulation 14 days after treatment, % of untreated ([2]; dose 5 (5x, 400 g ai/ha)): 77.5%
plant height 14 days after treatment, % of untreated ([2]; dose 5 (5x, 400 g ai/ha)): 84.8%
Phytotoxicity Index (0-9) 14 days after treatment ([2]; dose 6 (6x, 480 g ai/ha)): 0.5
biomass accumulation 14 days after treatment, % of untreated ([2]; dose 6 (6x, 480 g ai/ha)): 70.7%
plant height 14 days after treatment, % of untreated ([2]; dose 6 (6x, 480 g ai/ha)): 79.8%
Phytotoxicity Index (0-9) 14 days after treatment ([3]; dose 0.5 (0.5x, 40 g ai/ha)): 0.3
biomass accumulation 14 days after treatment, % of untreated ([3]; dose 0.5 (0.5x, 40 g ai/ha)): 98.9%
plant height 14 days after treatment, % of untreated ([3]; dose 0.5 (0.5x, 40 g ai/ha)): 99.9%
Phytotoxicity Index (0-9) 14 days after treatment ([3]; dose 1 (1x, 80 g ai/ha)): 0.3
biomass accumulation 14 days after treatment, % of untreated ([3]; dose 1 (1x, 80 g ai/ha)): 96.7* %
plant height 14 days after treatment, % of untreated ([3]; dose 1 (1x, 80 g ai/ha)): 99.5%
Phytotoxicity Index (0-9) 14 days after treatment ([3]; dose 2 (2x, 160 g ai/ha)): 0.3
biomass accumulation 14 days after treatment, % of untreated ([3]; dose 2 (2x, 160 g ai/ha)): 92.2** %
plant height 14 days after treatment, % of untreated ([3]; dose 2 (2x, 160 g ai/ha)): 98.0%
Phytotoxicity Index (0-9) 14 days after treatment ([3]; dose 3 (3x, 240 g ai/ha)): 0.3
biomass accumulation 14 days after treatment, % of untreated ([3]; dose 3 (3x, 240 g ai/ha)): 90.0** %
plant height 14 days after treatment, % of untreated ([3]; dose 3 (3x, 240 g ai/ha)): 95.7* %
Phytotoxicity Index (0-9) 14 days after treatment ([3]; dose 4 (4x, 320 g ai/ha)): 0.5
biomass accumulation 14 days after treatment, % of untreated ([3]; dose 4 (4x, 320 g ai/ha)): 85.7** %
plant height 14 days after treatment, % of untreated ([3]; dose 4 (4x, 320 g ai/ha)): 94.6** %
Phytotoxicity Index (0-9) 14 days after treatment ([3]; dose 5 (5x, 400 g ai/ha)): 0.8
biomass accumulation 14 days after treatment, % of untreated ([3]; dose 5 (5x, 400 g ai/ha)): 74.3** %
plant height 14 days after treatment, % of untreated ([3]; dose 5 (5x, 400 g ai/ha)): 85.4** %
Phytotoxicity Index (0-9) 14 days after treatment ([3]; dose 6 (6x, 480 g ai/ha)): 1.2
biomass accumulation 14 days after treatment, % of untreated ([3]; dose 6 (6x, 480 g ai/ha)): 69.9** %
plant height 14 days after treatment, % of untreated ([3]; dose 6 (6x, 480 g ai/ha)): 81.2** %
height reduction ([3]; A122T homozygous, 0.5x): 0.1%
height reduction ([3]; A122T homozygous, 6x): 18.8%
reduction of biomass weight ([3]; A122T homozygous, higher dose (6x)): 25%
